The record followed here is US9115121B2, “1,3,5-triazine-2-amine derivatives, preparation thereof and diagnostic and therapeutic use thereof” (SANOFI, priority 2011, dated 2015).

Structures are written as SMILES.

Chain of human CB2 receptors (P34972 whole entry): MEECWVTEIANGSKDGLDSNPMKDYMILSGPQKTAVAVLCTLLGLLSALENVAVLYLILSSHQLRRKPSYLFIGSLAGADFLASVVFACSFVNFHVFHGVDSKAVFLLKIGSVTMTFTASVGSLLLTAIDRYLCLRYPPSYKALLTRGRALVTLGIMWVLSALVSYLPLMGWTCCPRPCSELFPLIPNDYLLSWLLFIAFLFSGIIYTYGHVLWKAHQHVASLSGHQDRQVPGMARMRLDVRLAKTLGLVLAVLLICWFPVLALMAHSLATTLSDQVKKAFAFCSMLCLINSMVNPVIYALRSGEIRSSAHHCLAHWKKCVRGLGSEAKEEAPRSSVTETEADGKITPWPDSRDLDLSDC

One assay concerns the target human CB2 receptors (Homo sapiens (Human), UniProt P34972). The assay is described as follows: Affinity binding test on human CB2 receptors (tritiated ligand, membranes of recombinant cell lines). The settings on record: concentration causing 50% inhibition of specific binding of the tritiated ligand, read-out: IC50 (nM) hCB2. Here is the method:
Affinity binding tests were performed according to the experimental conditions described by M. Rinaldi-Carmona in J. Pharmacol. Exp. Therap. 1998, 287, 644-650, with membranes derived either from rodent tissues or from recombinant cell lines in which the human CB2 receptors were expressed (Munro et al., Nature 1993, 365, 61-65). The affinity of the compounds is expressed in the form of the IC50 (concentration causing 50% inhibition of specific binding of the tritiated ligand used in vitro).
As a reminder, the IC50 is the point on the concentration scale where inhibition reaches its midpoint. Take `COc1nc(NCCc2ccc(F)cc2)nc(-c2cccc(OC(C)C)c2)n1` [Compound 2]: the IC50 was 39 nM.

As to `COc1nc(NCCc2ccc(F)cc2)nc(-c2ccc(OC)c(OC)c2)n1` [Compound 3], the IC50 stood at 11 nM.

Regarding `COc1nc(NCCc2ccc(F)cc2)nc(-c2ccc(SC)cc2)n1` [Compound 5], the IC50 turned out to be 14 nM.

As to `COC(=O)CCc1cccc(-c2nc(NCCc3ccc(F)cc3)nc(OC)n2)c1` [Compound 6], the IC50 came to 12 nM.

With `COc1nc(NCCc2ccc(F)cc2)nc(-c2ccc3c(c2)OCO3)n1` [Compound 7], the IC50 stood at 9 nM.

Turning to `COc1nc(NCCc2ccc(F)cc2)nc(-c2ccc3c(c2)OCCO3)n1` [Compound 8], the concentration for half-maximal inhibition (IC50) turned out to be 14 nM.

For `COc1nc(NCCc2ccc(F)cc2)nc(-c2cccc(C(C)=O)c2F)n1` [Compound 10], the IC50 stood at 10 nM.

For `COc1nc(NCCc2ccc(F)cc2)nc(-c2cccc(S(=O)(=O)NC3CC3)c2)n1` [Compound 11], the IC50 worked out at 2.7 nM.

Consider `COc1nc(NCCc2ccc(F)cc2)nc(-c2ccc(Cl)c(C(C)(C)O)c2)n1` [Compound 13], for which the IC50 was 0.4 nM.

In the case of `COc1nc(NCCc2ccc(F)cc2)nc(-c2ccc(F)c(C(C)(C)O)c2)n1` [Compound 14], the IC50 was found to be 8 nM.

As for `COc1nc(NCCc2ccc(F)cc2)nc(-c2ccc(C(C)(C)O)c(OC)c2)n1` [Compound 15], the IC50 was determined as 17 nM.

Turning to `COc1nc(NCCc2ccc(F)cc2)nc(-c2ccc(N(C)C)nc2)n1` [Compound 16], the IC50 turned out to be 35 nM.

Take `COc1nc(NCCc2ccc(F)cc2)nc(-c2cc3cc(Br)ccc3[nH]2)n1` [Compound 17]: the IC50 turned out to be 17 nM.

With `COc1nc(NCCc2ccc(F)cc2)nc(-c2cc3cc(Cl)ccc3[nH]2)n1` [Compound 19], the IC50 came to 14 nM.

For `COc1nc(NCCc2ccc(F)cc2)nc(-c2cc3ccc(F)cc3[nH]2)n1` [Compound 21], the IC50 is 48 nM.

On to `COc1nc(NCCc2ccc(F)cc2)nc(-c2cc3cc(C)ccc3[nH]2)n1` [Compound 22], for which the IC50 was 24 nM.

Turning to `COc1nc(NCCc2ccc(F)cc2)nc(-c2cc3c(OC)cccc3[nH]2)n1` [Compound 23], the IC50 was 33 nM.

For `COc1ccc2[nH]c(-c3nc(NCCc4ccc(F)cc4)nc(OC)n3)cc2c1` [Compound 24], the IC50 stood at 21 nM.

As for `COc1nc(NCCc2ccc(F)cc2)nc(-c2cc3cc(C#N)ccc3[nH]2)n1` [Compound 25], the IC50 turned out to be 27 nM.

Consider `COc1nc(NCCc2ccc(F)cc2)nc(-c2cc3ccc(SC)cc3[nH]2)n1` [Compound 26], for which the IC50 stood at 37 nM.

With `COc1nc(NCCc2ccc(F)cc2)nc(-c2cccc3[nH]ccc23)n1` [Compound 27], the IC50 turned out to be 27 nM.

With `COc1nc(NCCc2ccc(F)cc2)nc(-c2ccc3[nH]ccc3c2)n1` [Compound 28], the IC50 amounted to 34 nM.

As to `COc1nc(NCCc2ccc(F)cc2)nc(-c2ccc3cc[nH]c3c2)n1` [Compound 29], the IC50 was 14 nM.

Turning to `COc1nc(NCCc2ccc(F)cc2)nc(-c2cc3ccccc3o2)n1` [Compound 30], the IC50 amounted to 5 nM.

In the case of `COc1nc(NCCc2ccc(F)cc2)nc(-c2ccc3nonc3c2)n1` [Compound 31], the IC50 turned out to be 42 nM.

`COc1nc(NCCc2ccc(F)cc2)nc(-c2cnc3ccccc3c2)n1` [Compound 32]: the IC50 was found to be 34 nM.

In the case of `COc1nc(NCCc2ccc(F)cc2)nc(-c2ccnc3ccccc23)n1` [Compound 33], the IC50 came out at 11 nM.

Regarding `COc1nc(NCCc2ccc(F)cc2)nc(-c2cccc3ncccc23)n1` [Compound 34], the IC50 came out at 47 nM.

For `COc1nc(NCCc2ccc(F)cc2)nc(-c2ccc3ncccc3c2)n1` [Compound 35], the IC50 worked out at 32 nM.

Turning to `COc1nc(NCCc2ccc(F)cc2)nc(-c2cccc3cccnc23)n1` [Compound 36], the IC50 came out at 17 nM.

Take `COc1nc(NCCc2ccc(F)cc2)nc(-c2ccc(F)c3cccnc23)n1` [Compound 37]: the IC50 amounted to 1 nM.

For the compound `COc1nc(NCCc2ccc(F)cc2)nc(-c2ccc(C)c3ncccc23)n1` [Compound 38], the IC50 was 38 nM.

As to `COc1nc(NCCc2ccc(F)cc2)nc(-c2ccc(OC)c3nc(C)ccc23)n1` [Compound 39], the IC50 was 38 nM.

Consider `COc1nc(NCCc2ccc(F)cc2)nc(-c2cncc3ccccc23)n1` [Compound 40], for which the IC50 was 21 nM.

`COc1nc(NCCc2ccc(F)cc2)nc(-c2cccc3cnccc23)n1` [Compound 41]: the IC50 was 20 nM.

`COc1nc(NCCc2ccc(OC(F)F)cc2)nc(-c2cc3c(Cl)cccc3[nH]2)n1` [Compound 42]: the IC50 is 24 nM.

As to `COc1nc(NCCc2ccc(OC(F)F)cc2)nc(-c2cc3cc(F)ccc3[nH]2)n1` [Compound 43], the IC50 worked out at 45 nM.

As to `COc1nc(NCCc2ccc(OC(F)F)cc2)nc(-c2cccc(C(C)(C)O)c2)n1` [Compound 44], the IC50 came out at 18 nM.

Take `COc1nc(NCCc2ccc(OC(F)F)cc2)nc(-c2ccc(F)c(C(C)(C)O)c2)n1` [Compound 45]: the IC50 was determined as 30 nM.

With `COc1nc(NCCc2ccc(F)cc2)nc(-c2cc3ccccc3s2)n1` [Compound 47], the IC50 is 4 nM.

Regarding `COc1ccc2oc(-c3nc(NCCc4ccc(F)cc4)nc(OC)n3)cc2c1` [Compound 48], the IC50 was determined as 12 nM.

Turning to `COc1nc(NCCc2ccc(OC(F)F)cc2)nc(-c2cccc(OC)c2C(C)(C)O)n1` [Compound 49], the IC50 was found to be 4 nM.

As to `COc1nc(NCCc2ccc(OC(F)(F)F)cc2)nc(-c2ccc(Cl)c(C(C)(C)O)c2)n1` [Compound 50], the IC50 worked out at 12 nM.

`COc1nc(NCCc2ccc(F)cc2)nc(-c2cc3cc(Cl)ccc3o2)n1` [Compound 51]: the IC50 stood at 23 nM.

On to `COc1nc(NCCc2ccc(OC(F)(F)F)cc2)nc(-c2ccc(OC)c(C(C)(C)O)c2)n1` [Compound 54], for which the IC50 came out at 9 nM.

`COc1nc(NCCc2ccc(OC(F)F)cc2)nc(-c2ccc(C)c(S(=O)(=O)NC3CC3)c2)n1` [Compound 55]: the IC50 worked out at 44 nM.

Regarding `CCC(O)(CC)c1cccc(-c2nc(NCCc3ccc(F)cc3)nc(OC)n2)c1` [Compound 57], the IC50 stood at 21 nM.

Regarding `COc1nc(NCCc2ccc(F)cc2)nc(-c2ccc(CO)c(S(=O)(=O)NC3CC3)c2)n1` [Compound 59], the IC50 was 25 nM.

Consider `COc1nc(NCCc2ccc(OC(F)F)cc2)nc(-c2cccc(S(=O)(=O)NC3CC3)c2)n1` [Compound 60], for which the IC50 was 23 nM.

As to `COc1nc(NCCc2ccc(F)cc2)nc(-c2ccc(Cl)c(S(=O)(=O)NC3CC3)c2)n1` [Compound 62], the IC50 stood at 4 nM.

As for `COc1nc(NCCc2ccc(F)cc2)nc(-c2ccc(OC)c(C#N)c2)n1` [Compound 64], the IC50 amounted to 19 nM.

Consider `COc1nc(NCCc2ccc(F)cc2)nc(-c2ccc(Cl)c(OCCCNS(C)(=O)=O)c2)n1` [Compound 66], for which the IC50 came out at 18 nM.

With `COc1nc(NCCc2ccc(OC(F)F)cc2)nc(-c2ccc(Cl)c(OCC(N)=O)c2)n1` [Compound 68], the IC50 amounted to 11 nM.

Turning to `COc1nc(NCCc2ccc(OCF)cc2)nc(-c2ccc(OC)c(C(C)(C)O)c2)n1` [Compound 70], the IC50 worked out at 9 nM.

Still in this assay, the particulars now being: reported in text, read-out: IC50 on hCB2.
Turning to `CC(C)(O)c1cc(-c2nc(NCCc3ccc(F)cc3)nc(OCF)n2)ccc1Cl` [Compound 71, 2-{2-Chloro-5-[4-(fluoromethoxy)-6-{[2-(4-fluorophenyl)ethyl]amino}-1,3,5-triazin-2-yl]phenyl}propan-2-ol], the IC50 was 1.2 nM.

Consider `COc1ccc(-c2nc(NCCc3ccc(F)cc3)nc(OCF)n2)cc1C(C)(C)O` [Compound 72, 2-{5-[4-(Fluoromethoxy)-6-{[2-(4-fluorophenyl)ethyl]amino}-1,3,5-triazin-2-yl]-2-methoxyphenyl}propan-2-ol], for which the IC50 came to 1.2 nM.
